Experimental data: publication PMC10746280, “Bacterial efflux pump modulators prevent bacterial growth in macrophages and under broth conditions that mimic the host environment” (mBio, 2023)

Assays:
[1] = test system: S. Typhimurium SL1344 (sifB::gfp) in RAW 264.7 macrophages; test: SAFIRE macrophage assay: intracellular bacterial load (GFP signal within macrophages); format: cell-based, Salmonella enterica serotype Typhimurium
Excerpt: (§1) In SAFIRE, we used MATLAB software to count the number of macrophages that remain adherent and retain the red fluorescence of MitoTracker, an indicator of voltage across the mitochondrial inner membrane. MATLAB then calculates the signal from bacteria (green fluorescent protein [GFP]) that overlaps with macrophages, as defined by MitoTracker, to estimate bacterial load. […] For example, we observed that the 6-trifluoropyrimidin-2-yl group on the right-hand side of EPM35 is apparently toxic to macrophages. Non-toxic analogs that reduced bacterial load by at least 60% at 5 µM and 25 µM in SAFIRE, as compared with DMSO, progressed and were evaluated in SAFIRE across eight or more concentrations, ranging from 0.001 µM to 50 µM (n = 2). […] Each of the top 13 analogs had at least an eightfold increase in potency and were not toxic for macrophages at 50 µM in the SAFIRE assay (Fig. 1C).
(§2) As previously described ([18]), RAW 264.7 macrophages (between passages 1 and 6) were grown in complete Dulbecco’s modified Eagle’s medium (DMEM) to approximately 70% to 90% confluence, scraped, washed, resuspended, diluted to 5 × 10^4 in 100 µL, and seeded in black, 96-well, glass-bottomed plates (Brooks Life Sciences catalog number MGB096-1-2-LG-L) at 37°C with 5% CO2. Twenty-four hours later, bacteria grown overnight in LB were diluted into 50 µL phosphate buffered saline (PBS) and added to a final concentration of 1 × 10^7 S. Typhimurium SL1344 (sifB::gfp) per milliliter ([78]) for an approximate multiplicity of infection of 30 bacteria per macrophage cell. Forty-five minutes after bacterial addition, gentamicin (Sigma catalog number G1264) was added to a final concentration of 40 µg/mL to inhibit the growth of remaining extracellular bacteria. Two hours after infection, gentamicin-containing medium was removed and replaced with 200 µL fresh DMEM with compound or DMSO (Sigma catalog number 276855) to the stated final concentrations. At 17.5 h after infection, PBS containing MitoTracker Red CMXRos (Life Technologies catalog number M7512), a vital dye for mitochondrial electric potential, was added to a final concentration of 100 nM. At 18 h after infection, 16% paraformaldehyde was added to a final concentration of 4% and incubated at room temperature for 15 min. Cells were washed twice with PBS and stained for 20 min with 1 µM 4′,6-diamidino-2-phenylindole (DAPI), a vital dye for double-stranded DNA, and stored in 90% glycerol in PBS until imaging. Samples were imaged in six fields of view per well using a semiautomated Yokogawa CellVoyager CV1000 confocal scanner system with a 20×, 0.75-numerical aperture (NA) objective. A MATLAB algorithm calculated bacterial accumulation (GFP fluorescence) within macrophages, as defined by DAPI and MitoTracker Red. GFP^+ macrophage area was defined as the number of GFP-positive pixels per macrophage divided by the total number of pixels per macrophage, averaged across all macrophages in the field ([34]).

RAW 264.7 macrophages = test: SAFIRE macrophage assay: host toxicity (adherent macrophage count, morphology); format: cell-based
Excerpt: as §1, §2

[2] = 5 uM, 'Toxic' given instead of a score
[3] = 25 uM, 'Toxic' given instead of a score
[4] = 5 uM compound, n=1, DMSO solvent control = 98, rifampicin 2 μg/mL = 65
[5] = 25 uM compound, n=1, DMSO solvent control = 98, rifampicin 2 μg/mL = 65
[6] = 5 uM compound, n=1, DMSO solvent control = 100
[7] = 25 uM compound, n=1, DMSO solvent control = 100

| SMILES | 5 uM Avg Antibacterial Score [1, 2] | 25 uM Avg Antibacterial Score [1, 3] | 5 uM Avg Cell # Score (RAW 264.7 macrophages; 5 uM) | 25 uM Avg Cell # Score (RAW 264.7 macrophages; 25 uM) | 5 uM Avg Antibacterial Score [1, 4] | 25 uM Avg Antibacterial Score [1, 5] | 5 uM Avg Cell # Score (RAW 264.7 macrophages; [6]) | 25 uM Avg Cell # Score (RAW 264.7 macrophages; [7]) | IC50 ([1]; Salmonella enterica, TYPHIMURIUM, RAW264.7, read-out: SAFIRE IC50) | toxicity to infected macrophages in SAFIRE (RAW 264.7 macrophages; 16 h after treatment) |
| --- | --- | --- | --- | --- | --- | --- | --- | --- | --- | --- |
| O=C(O)c1cn(C2CC2)c2cc(N3CCN(CC(O)COc4ccc(Cl)c(Cl)c4)CC3)c(F)cc2c1=O (centres unmarked) [CU196] | 86 | Toxic | 103 | 13 |  |  |  |  |  |  |
| NC(=O)N1CCN(CC(O)COc2ccc(Cl)c(Cl)c2)CC1 (centres unmarked) [CU067] | 104 | 101 | 79 | 88 |  |  |  |  |  |  |
| OC(COc1cc(Cl)cc(Cl)c1)CN1CCCCC1 (centres unmarked) [CU247] |  |  |  |  | 93 | 50 | 118 | 111 |  |  |
| OC(CNC1CCNCC1)COc1ccc(Cl)cc1Cl (centres unmarked) [CU201] | 44 | 13 | 109 | 102 |  |  |  |  |  |  |
| OC(COc1ccc(Cl)cc1)CN1CCC(NC2CC2)C1 (centres unmarked) [CU140] | 87 | 73 | 122 | 130 |  |  |  |  |  |  |
| OC(COc1ccc2ccccc2c1)CN1CCC(Nc2nccc(C(F)(F)F)n2)CC1 (centres unmarked) [CU078] | 7.5 | Toxic | 87 | 133 |  |  |  |  |  |  |
| O[C@@H](COc1ccc(Cl)c(Cl)c1)CN1CCCCC1 [CU253] |  |  |  |  | 96 | 57 | 116 | 120 |  |  |
| OC(COc1ccc(F)cc1)CN1CCC(Nc2ncccn2)CC1 (centres unmarked) [CU045] | 101 | 99 | 86 | 109 |  |  |  |  |  |  |
| NC1CCN(CC(O)COc2ccc(Cl)cc2Cl)C1 (centres unmarked) [CU166] | 44 | 19 | 105 | 108 |  |  |  |  |  |  |
| OC(COc1ccc(Cl)c(Cl)c1)CN1CCC(N2CCOCC2)C1 (centres unmarked) [CU029] | 105 | 63 | 75 | 146 |  |  |  |  |  |  |
| CN(C)C(=O)C1CCN(CC(O)COc2ccc(Cl)c(Cl)c2)CC1 (centres unmarked) [CU058] | 104 | 72 | 85 | 81 |  |  |  |  |  |  |
| NC1CCN(C[C@@H](O)COc2ccc(Cl)c(Cl)c2)C1 (some centres unmarked) [CU161] | 55 | 33 | 138 | 113 |  |  |  |  | 0.0814 µM | non-toxic |
| OC(COc1ccc(Cl)c(Cl)c1)CN1CCC2(CCO2)C1 (centres unmarked) [CU228] | 98 | 58 | 111 | 102 |  |  |  |  |  |  |
| OC(COc1ccc(F)cc1F)CN1CCC(Nc2nccc(C(F)(F)F)n2)C1 (centres unmarked) [CU098] | 92 | 12 | 89 | 88 |  |  |  |  |  |  |
| CC(=O)NC1CCN(CC(O)COc2ccc(Cl)c(Cl)c2)C1 (centres unmarked) [CU033] | 106 | 72 | 79 | 110 |  |  |  |  |  |  |
| CSc1ccc(OCC(O)CN2CCC(Nc3nccc(C(F)(F)F)n3)CC2)cc1 (centres unmarked) [CU147] | 72 | Toxic | 121 | 43 |  |  |  |  |  |  |
| OC(COc1ccc(Cl)c(Cl)c1)CN1CCN(CC2CC2)CC1 (centres unmarked) [CU183] | 92 | 25 | 103 | 105 |  |  |  |  |  |  |
| OC(COc1ccc(Cl)c(Cl)c1)CN1CCC(Nc2nccs2)CC1 (centres unmarked) [CU051] | 58 | 45 | 123 | 105 |  |  |  |  |  |  |
